Like-named read-outs stand apart in the source and are kept apart here.
Experiments:
MLM melanoma = assay: MTT cytotoxicity assay, MLM
A-549 lung carcinoma = assay: MTT cytotoxicity assay, A-549; details: Homo sapiens, A549, […]
MCF-7 breast carcinoma = assay: MTT cytotoxicity assay, MCF-7; details: Homo sapiens, MCF7, […]
[1] = tested on: HT-29 colon adenocarcinoma; assay: MTT cytotoxicity assay, HT-29; details: Homo sapiens, HT-29, […]
SKMEL-5 melanoma = assay: MTT cytotoxicity assay, SKMEL-5; details: Homo sapiens, SK-MEL-5, […], read-out: Cytotoxicity ED50, SKMEL-5
[2] = […], read-out: Cytotoxicity ED50, MLM
[3] = read-out: Cytotoxicity ED50, A-549
[4] = read-out: Cytotoxicity ED50, MCF-7
[5] = read-out: Cytotoxicity ED50, HT-29

| Molecule | IC50 (MLM melanoma; [2]) | IC50 (A-549 lung carcinoma; [3]) | IC50 (MCF-7 breast carcinoma; [4]) | IC50 [1, 5] | IC50 (SKMEL-5 melanoma) | IC50 (MLM melanoma; […], read-out: Cytotoxicity ED50, MLM, MLM, MTT, six days) | IC50 (A-549 lung carcinoma; read-out: Cytotoxicity ED50, A-549, A-549, MTT, six days) | IC50 (MCF-7 breast carcinoma; read-out: Cytotoxicity ED50, MCF-7, MCF-7, MTT, six days) | IC50 ([1]; read-out: Cytotoxicity ED50, HT-29, HT-29, MTT, six days) | IC50 (MLM melanoma; read-out: Cytotoxicity ED50, MLM, MLM, MTT, six days, 8640 min) |
| --- | --- | --- | --- | --- | --- | --- | --- | --- | --- | --- |
| COc1ccc(CCc2ccccc2)c(OC)c1OC [8r] | > 25 µM | > 25 µM | > 25 µM | > 25 µM | > 25 µM |  |  |  |  |  |
| COc1ccc(CNc2cc(OC)c(OC)c(OC)c2)cc1OC [12b] | > 25 µM | > 25 µM | > 25 µM | > 25 µM | > 25 µM |  |  |  |  |  |
| COc1cc(/C=C/c2ccc(OC)c(OC)c2)cc(OC)c1 [6y] | > 25 µM | > 25 µM | > 25 µM | > 25 µM | > 25 µM |  |  |  |  |  |
| COc1cc(/C=C/c2ccccc2)cc(OC)c1OC [6f] | > 25 µM | > 25 µM | > 25 µM | > 25 µM | > 25 µM |  |  |  |  |  |
| COc1ccc(CNc2cc(OC)cc(OC)c2)cc1 [12e] | > 25 µM | > 25 µM | > 25 µM | > 25 µM | > 25 µM |  |  |  |  |  |
| COc1cc(OC)c(OC)cc1/C=C/c1ccccc1 [6w] | > 25 µM | > 25 µM | 8.5 µM | > 25 µM | > 25 µM |  |  |  |  |  |
| COc1cc(CCc2ccc(OC)c(OC)c2OC)cc(OC)c1OC [8t] | > 25 µM | > 25 µM | > 25 µM | > 25 µM | > 25 µM |  |  |  |  |  |
| COc1cccc(CCc2cc(OC)c(OC)c(OC)c2)c1 [8b] | > 25 µM | 11.7 µM | 12.4 µM | 7.6 µM | 9.2 µM |  |  |  |  |  |
| COc1cc(CCc2ccccc2)cc(OC)c1OC [8f] | > 25 µM | > 25 µM | > 25 µM | > 25 µM | > 25 µM |  |  |  |  |  |
| COc1ccc(/C=C/c2cc(OC)c(OC)c(OC)c2)c(Cl)c1 [6e] |  |  |  |  | > 25 µM | > 25 µM | > 25 µM | > 25 µM | > 25 µM |  |
| COc1cc(OC)c(OC)cc1CCc1cc(OC)c(OC)c(OC)c1 [8v] | > 25 µM | > 25 µM | > 25 µM | > 25 µM | > 25 µM |  |  |  |  |  |
| COc1ccc(/C=C/c2ccccc2)cc1OC [6q, (E)-1-(3,4-Dimethoxyphenyl)-2-phenylethene] | > 25 µM | > 25 µM | > 25 µM | > 25 µM | > 25 µM |  |  |  |  |  |
| COc1ccc(/C=C/c2ccccc2)c(OC)c1OC [6r, (E)-1-Phenyl-2-(2,3,4-trimethoxyphenyl)ethene] | > 25 µM | > 25 µM | > 25 µM | > 25 µM | > 25 µM |  |  |  |  |  |
| COc1ccc(/C=C/c2ccc(OC)c(OC)c2)cc1 [16h, (E)-(4-Methoxyphenyl)-2-(3,4-dimethoxyphenyl)ethene] | > 25 µM | 11.7 µM | > 25 µM | > 25 µM | > 25 µM |  |  |  |  |  |
| COc1cc(/C=C/c2ccc(Cl)cc2)cc(OC)c1OC [6g] | > 25 µM | > 25 µM | > 25 µM | > 25 µM | > 25 µM |  |  |  |  |  |
| COc1cc(/C=C\c2ccc(C)cc2)cc(OC)c1OC [15d, (Z)-(4-Methylphenyl)-2-(3,4,5-trimethoxyphenyl)ethene] | 0.0066 µM | 0.00094 µM | 0.024 µM | 0.0023 µM | 0.00083 µM |  |  |  |  |  |
| CCc1ccc(/C=C/c2cc(OC)c(OC)c(OC)c2)cc1 [16e, (E)-(4-Ethylphenyl)-2-(3,4,5-trimethoxyphenyl)ethene] | 0.22 µM | 0.13 µM | 1.2 µM | 0.11 µM | 0.17 µM |  |  |  |  |  |
| COc1cc(OC)c(OC)cc1/C=C/c1cc(OC)c(OC)c(OC)c1 [6v] | > 25 µM | > 25 µM | > 25 µM | > 25 µM | > 25 µM |  |  |  |  |  |
| COc1ccc(/C=C/c2cc(OC)cc(OC)c2)cc1 [16i, (E)-1-(3,5-Dimethoxyphenyl)-2-(4-methoxyphenyl)ethene] | > 25 µM | 7.5 µM | 9.7 µM | 6.9 µM | 0.88 µM |  |  |  |  |  |
| COc1cc(CCc2ccc(NC(C)=O)cc2)cc(OC)c1OC [compound 8m, 1-(4-Acetamidophenyl)-2-(3,4,5-trimethoxyphenyl)ethane] | > 25 µM | > 25 µM | > 25 µM | > 25 µM | > 25 µM |  |  |  |  |  |
| COc1cc(CCc2cc(OC)c(OC)c(OC)c2)cc(OC)c1OC [8u] | > 25 µM | > 25 µM | > 25 µM | > 25 µM | > 25 µM |  |  |  |  |  |

| Molecule | IC50 (MLM melanoma; [2]) | IC50 (A-549 lung carcinoma; [3]) | IC50 (MCF-7 breast carcinoma; [4]) | IC50 [1, 5] | IC50 (SKMEL-5 melanoma) | IC50 (MLM melanoma; […], read-out: Cytotoxicity ED50, MLM, MLM, MTT, six days) | IC50 (A-549 lung carcinoma; read-out: Cytotoxicity ED50, A-549, A-549, MTT, six days) | IC50 (MCF-7 breast carcinoma; read-out: Cytotoxicity ED50, MCF-7, MCF-7, MTT, six days) | IC50 ([1]; read-out: Cytotoxicity ED50, HT-29, HT-29, MTT, six days) | IC50 (MLM melanoma; read-out: Cytotoxicity ED50, MLM, MLM, MTT, six days, 8640 min) |
| --- | --- | --- | --- | --- | --- | --- | --- | --- | --- | --- |
| COc1ccccc1CCc1cc(OC)c(OC)c(OC)c1 [8c] | > 25 µM | 13.5 µM | 11.8 µM | > 25 µM | 20 µM |  |  |  |  |  |
| CCCOc1ccc(/C=C/c2cc(OC)c(OC)c(OC)c2)cc1 [16b, (E)-1-(4-n-Propoxyphenyl)-2-(3,4,5-trimethoxyphenyl)ethene] | > 25 µM | 9.2 µM | 12.5 µM | > 25 µM | > 25 µM |  |  |  |  |  |
| COc1ccc(C(=O)Nc2cc(OC)c(OC)c(OC)c2)cc1 [11c, 4-Methoxy-N-(3,4,5-trimethoxyphenyl)benzamide] | > 25 µM | > 25 µM | > 25 µM | > 25 µM | > 25 µM |  |  |  |  |  |
| COc1cc(/C=C/c2ccc(N)cc2)cc(OC)c1OC [6z, (E)-1-(4-Aminophenyl)-2-(3,4,5-trimethoxyphenyl)ethene] | > 25 µM | > 25 µM | > 25 µM | > 25 µM | > 25 µM |  |  |  |  |  |
| COc1cc(CCc2ccc(O)cc2)cc(OC)c1OC [8o, 1-(4-hydroxyphenyl)-2-(3,4,5-trimethoxyphenyl)ethane] | > 25 µM | > 25 µM | > 25 µM | > 25 µM | > 25 µM |  |  |  |  |  |
| COc1cc(/C=C/c2cc(OC)c(OC)c(OC)c2)cc(OC)c1 [6s] | > 25 µM | > 25 µM | > 25 µM | > 25 µM | > 25 µM |  |  |  |  |  |
| COc1cc(/C=C/c2ccc(OC(C)=O)cc2)cc(OC)c1OC [6p, (E)-1-(4-Acetoxyphenyl)-2-(3,4,5-trimethoxyphenyl)ethene] | 13 µM | 9.7 µM | 9.6 µM | 5.4 µM | 4.6 µM |  |  |  |  |  |
| COc1ccc(C(=O)Nc2cc(OC)c(OC)c(OC)c2)cc1OC [11b] | > 25 µM | > 25 µM | > 25 µM | > 25 µM | > 25 µM |  |  |  |  |  |
| COc1ccc(/C=C/c2cc(OC)c(O[Si](C)(C)C(C)(C)C)c(OC)c2)cc1 [16k, (E)-1-[4-{(t-Butyldimethylsilyl)-oxy}-3,5-(dimethoxy)-phenyl]-2-(4-methoxyphenyl)ethene] | > 25 µM | > 25 µM | > 25 µM | > 25 µM | > 25 µM |  |  |  |  |  |
| COc1cc(/C=C/c2cccnc2)cc(OC)c1OC [6j, 1-(3-Pyridyl)-2-(3,4,5-trimethoxyphenyl)ethene] | > 25 µM | > 25 µM | > 25 µM | > 25 µM | > 25 µM |  |  |  |  |  |
| COc1ccc(CCc2ccccc2)cc1OC [8q] | > 25 µM | > 25 µM | > 25 µM | > 25 µM | > 25 µM |  |  |  |  |  |
| COc1cc(/C=C/c2cc(OC)c(OC)c(OC)c2)cc(OC)c1OC [6u] | > 25 µM | > 25 µM | > 25 µM | > 25 µM | > 25 µM |  |  |  |  |  |
| COc1cc(NC(=O)c2cc(OC)c(OC)c(OC)c2)cc(OC)c1OC [11f] | > 25 µM | > 25 µM | > 25 µM | > 25 µM | > 25 µM |  |  |  |  |  |
| COc1ccc(C(=O)Nc2cc(OC)cc(OC)c2)cc1 [11e] | > 25 µM | > 25 µM | > 25 µM | > 25 µM | > 25 µM |  |  |  |  |  |
| COc1cc(/C=C/c2ccc(C)cc2)cc(OC)c1OC [16d, (E)-(4-Methylphenyl)-2-(3,4,5-trimethoxyphenyl)ethene] | 6.3 µM | 1.1 µM | 1.9 µM | 0.9 µM | 0.8 µM |  |  |  |  |  |
| COc1cc(OC)c(/C=C/c2ccccc2)c(OC)c1 [6x] | > 25 µM | > 25 µM | > 25 µM | > 25 µM | > 25 µM |  |  |  |  |  |
| COc1cc(/C=C/c2ccncc2)cc(OC)c1OC [6i, 1-(4-Pyridyl)-2-(3,4,5-trimethoxyphenyl)ethene] | > 25 µM | > 25 µM | > 25 µM | > 25 µM | > 25 µM |  |  |  |  |  |
| COc1cc(/C=C/c2ccc(C(C)(C)C)cc2)cc(OC)c1OC [16g, (E)-1-(4-t-Butylphenyl)-2-(3,4,5-trimethoxyphenyl)ethene] | > 25 µM | > 25 µM | > 25 µM | > 25 µM | > 25 µM |  |  |  |  |  |
| (E)-1-[4-(Benzyloxy)-3,5-(dimethoxy)phenyl]-2-(4-methoxyphenyl)ethene [16j] |  |  |  |  |  |  |  |  |  | > 25 µM |
| CCc1ccc(/C=C\c2cc(OC)c(OC)c(OC)c2)cc1 [15e, (Z)-(4-Ethylphenyl)-2-(3,4,5-trimethoxyphenyl)ethene] | 0.0075 µM | 0.012 µM | 0.072 µM | 0.0027 µM | 0.00086 µM |  |  |  |  |  |
| COc1cc(/C=C/c2ccc([N+](=O)[O-])cc2)cc(OC)c1OC [compound 6l, (E)-1-(4-Nitrophenyl)-2-(3,4,5-trimethoxyphenyl)ethene] | > 25 µM | > 25 µM | > 25 µM | > 25 µM | > 25 µM |  |  |  |  |  |
